The results in this text go back to patent US8642799B2, “Cysteine protease inhibitors for the treatment of parasitic diseases” (Merck Canada Inc., priority 2007, dated 2014).

Sequence of cruzipain (P25779 123-467): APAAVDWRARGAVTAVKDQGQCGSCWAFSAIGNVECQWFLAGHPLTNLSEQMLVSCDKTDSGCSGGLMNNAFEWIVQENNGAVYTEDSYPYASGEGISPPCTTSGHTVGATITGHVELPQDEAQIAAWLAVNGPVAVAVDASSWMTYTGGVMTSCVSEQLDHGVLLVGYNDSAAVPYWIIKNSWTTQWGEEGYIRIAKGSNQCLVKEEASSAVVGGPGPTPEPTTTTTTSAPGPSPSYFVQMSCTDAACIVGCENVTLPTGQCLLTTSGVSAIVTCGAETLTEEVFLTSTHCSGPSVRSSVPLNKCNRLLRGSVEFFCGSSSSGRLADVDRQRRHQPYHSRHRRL

This assay has as its target cruzipain (Trypanosoma cruzi, UniProt P25779). Briefly: biochemical. Conditions: 50 pM cruzipain, pH 5.5, 15 minutes preincubation, 2 μM Z-Phe-Arg-AMC substrate. On the procedure:
The assay solutions were mixed and incubated for 15 minutes at room temperature prior to the addition of 2 μM of Z-Phe-Arg-AMC substrate. […] Percent of inhibition were calculated by fitting experimental values to standard mathematical model for dose response curve.
In turn, `CS(=O)(=O)c1ccc(-c2ccc([C@H](N[C@@H](CC(Cl)Cl)C(=O)N[C@H](C#N)Cc3ccc(C#N)cc3F)C(F)(F)F)cc2)cc1` [Example 1, (S)-4,4-Dichloro-N-[(S)-cyano-(4-cyano-2-fluoro-benzyl)-methyl]-2-[(S)-2,2,2-trifluoro-1-(4′-methanesulfonyl-biphenyl-4-yl)-ethylamino]-butyramide] returned an IC50 of 0.14 nM.

The compound `CC(C)(F)C[C@H](N[C@@H](c1ccc(-c2ccc(S(C)(=O)=O)cc2)cc1)C(F)(F)F)C(=O)N[C@H](C#N)Cc1ccc(C#N)cc1` [Example 3, (S)-4-Fluoro-4-methyl-2-[(S)-2,2,2-trifluoro-1-(4′-methanesulfonyl-biphenyl-4-yl)-ethylamino]-pentanoic acid [(S)-1-cyano-2-(4-cyano-phenyl)-ethyl]-amide] gave an IC50 of 1.5 nM.

`CC(C)(F)C[C@H](N[C@@H](c1ccc(-c2ccc(S(C)(=O)=O)cc2Cl)cc1)C(F)(F)F)C(=O)NC(C#N)Cc1ccc(C#N)cc1Cl` (stereo partly drawn) [Example 6, (S)-2-[(S)-1-(2′-Chloro-4′-methanesulfonyl-biphenyl-4-yl)-2,2,2-trifluoro-ethylamino]-4-fluoro-4-methyl-pentanoic acid [2-(2-chloro-4-cyano-phenyl)-1-cyano-ethyl]-amide] came in with an IC50 of 1.2 nM.

For the compound `CC(C)(F)C[C@H](N[C@@H](c1ccc(-c2ccc(S(C)(=O)=O)cc2Cl)cc1)C(F)(F)F)C(=O)NC(C#N)Cc1ccc(C#N)cc1F` (stereo partly drawn) [Example 7, (S)-2-[(S)-1-(2′-Chloro-4′-methanesulfonyl-biphenyl-4-yl)-2,2,2-trifluoro-ethylamino]-4-fluoro-4-methyl-pentanoic acid [1-cyano-2-(4-cyano-2-fluoro-phenyl)-ethyl]-amide], it took 0.9 nM to reach half-maximal inhibition (IC50). This IC50 and that of the compound before are within 1.5-fold of each other.

`CC(C)C[C@H](N[C@@H](c1ccc(-c2ccc(S(C)(=O)=O)cc2)cc1)C(F)(F)F)C(=O)NC(C#N)Cc1ccc(C#N)cc1` (stereo partly drawn) [Example 8, (S)-4-Methyl-2-[(S)-2,2,2-trifIuoro-1-(4′-methanesulfonyl-biphenyl-4-yl)-ethylamino]-pentanoic acid [1-cyano-2-(4-cyano-phenyl)-ethyl]-amide] returned an IC50 of 0.2 nM.

On to `CC(C)C[C@H](N[C@@H](c1ccc(Br)cc1)C(F)(F)F)C(=O)N[C@H](C#N)Cc1ccc(S(C)(=O)=O)cc1` [Example 9, (S)-2-[(S)-1-(4-Bromo-phenyl)-2,2,2-trifluoro-ethylamino]-4-methyl-pentanoic acid [(S)-1-cyano-2-(4-methanesulfonyl-phenyl)-ethyl]-amide], for which it took 0.6 nM to reach half-maximal inhibition (IC50).

`CC(C)(F)C[C@H](N[C@@H](c1ccc(-c2ccc(S(C)(=O)=O)cc2)cc1)C(F)(F)F)C(=O)N[C@H](C#N)Cc1ccc(-c2cccnc2)cc1` [Example 14, (S)-4-Fluoro-4-methyl-2-[(S)-2,2,2-trifluoro-1-(4′-methanesulfonyl-biphenyl-4-yl)-ethylamino]-pentanoic acid [(S)-1-cyano-2-(4-pyridin-3-yl-phenyl)-ethyl]-amide] registered an IC50 of 7 nM.

Consider `CCOC(=O)c1ccc(C[C@@H](C#N)NC(=O)[C@H](CC(C)(C)F)N[C@@H](c2ccc(-c3ccc(S(C)(=O)=O)cc3)cc2)C(F)(F)F)cc1` [Example 15, 4-((S)-2-Cyano-2-{(S)-4-fluoro-4-methyl-2-[(S)-2,2,2-trifluoro-1-(4′-methanesulfonyl-biphenyl-4-yl)-ethylamino]-pentanoylamino}-ethyl)-benzoic acid ethyl ester], for which the IC50 amounted to 4.4 nM.

Regarding `CC(C)(F)C[C@H](N[C@@H](c1ccc(-c2ccc(S(C)(=O)=O)cc2)cc1)C(F)(F)F)C(=O)N[C@H](C#N)Cc1ccc(F)cc1` [Example 16, (S)-4-Fluoro-4-methyl-2-[(S)-2,2,2-trifluoro-1-(4′-methanesulfonyl-biphenyl-4-yl)-ethylamino]-pentanoic acid [(S)-cyano-(4-fluoro-benzyl)-methyl]-amide], 6.1 nM corresponded to half-maximal inhibition (IC50).

Compound `CC(C)(F)C[C@H](N[C@@H](c1ccc(-c2ccc(S(C)(=O)=O)cc2)cc1)C(F)(F)F)C(=O)N[C@H](C#N)Cc1ccccc1F` [Example 17, (S)-Fluoro-4-methyl-2-[(S)-2,2,2-trifluoro-1-(4′-methanesulfonyl-biphenyl-4-yl)-ethylamino]-pentanoic acid [(S)-1-cyano-2-(2-fluoro-phenyl)-ethyl]-amide] came in with an IC50 of 0.9 nM.

The compound `CC(C)(F)C[C@H](N[C@@H](c1ccc(-c2ccc(S(C)(=O)=O)cc2)cc1)C(F)(F)F)C(=O)N[C@H](C#N)Cc1ccc(Cl)cc1Cl` [Example 18, (S)-4-Fluoro-4-methyl-2-[(S)-2,2,2-trifluoro-1-(4′-methanesulfonyl-biphenyl-4-yl)-ethylamino]-pentanoic acid [(S)-1-cyano-2-(2,4-dichloro-phenyl)-ethyl]-amide] registered a half-inhibitory concentration (IC50) of 1.3 nM. The IC50 values of the last two compounds are within 1.5-fold of each other.

In turn, `CC(C)(F)C[C@H](N[C@@H](c1ccc(-c2ccc(S(C)(=O)=O)cc2)cc1)C(F)(F)F)C(=O)N[C@H](C#N)Cc1ccc(C(F)(F)F)cc1` [Example 19, (S)-4-Fluoro-4-methyl-2-[(S)-2,2,2-trifluoro-1-(4′-methanesulfonyl-biphenyl-4-yl)-ethylamino]-pentanoic acid [(S)-1-cyano-2-(4-trifluoromethyl-phenyl)-ethyl]-amide] registered an IC50 of 12.4 nM.

`CC(C)(F)C[C@H](N[C@@H](c1ccc(-c2ccc([C@@H](O)C(F)F)cc2)cc1)C(F)(F)F)C(=O)N[C@H](C#N)Cc1ccc(S(C)(=O)=O)cc1` [Example 20, (S)-2-{(S)-1-[4′-((R)-2,2-Difluoro-1-hydroxy-ethyl)-biphenyl-4-yl]-2,2,2-trifluoro-ethylamino}-4-fluoro-4-methyl-pentanoic acid [(S)-1-cyano-2-(4-methanesulfonyl-phenyl)-ethyl]-amide] showed an IC50 of 8.4 nM. The IC50 values of the last two compounds are within 1.5-fold of each other.

`CC(C)C[C@H](N[C@@H](c1ccc(Br)cc1)C(F)(F)F)C(=O)N[C@H](C#N)Cc1ccc(C#N)cc1` [Example 21, (S)-2-[(S)-1-(4-Bromo-phenyl)-2,2,2-trifluoro-ethylamino]-4-methyl-pentanoic acid [(S)-1-cyano-2-(4-cyano-phenyl)-ethyl]-amide]: half-maximal inhibition (IC50) was put at 0.94 nM.

The compound `CC(C)(F)C[C@H](N[C@@H](c1ccc(-c2ccc(-c3ccc(S(C)(=O)=O)cc3)cc2)cc1)C(F)(F)F)C(=O)N[C@H](C#N)Cc1ccccc1` [Example 24, (S)-4-Fluoro-4-methyl-2-[(S)-2,2,2-trifluoro-1-(4-methanesulfonyl-[1,1′;4′,1″]terphenyl-4″-yl)-ethylamino]-pentanoic acid ((S)-benzyl-cyano-methyl)-amide] returned an IC50 of 16 nM.

In turn, `C[S+]([O-])c1ccc(-c2ccc([C@H](N[C@@H](CC(C)(C)F)C(=O)N[C@H](C#N)Cc3ccc(C#N)cc3F)C(F)(F)F)cc2)cc1` (stereo partly drawn) [Example 25, (S)-4-Fluoro-4-methyl-2-[(S)-2,2,2-trifluoro-1-(4′-methanesulfinyl-biphenyl-4-yl)-ethylamino]-pentanoic acid [(S)-1-cyano-2-(4-cyano-2-fluoro-phenyl)-ethyl]-amide] returned an IC50 of 0.75 nM.

`CSc1ccc(-c2ccc([C@H](N[C@@H](CC(C)(C)F)C(=O)N[C@H](C#N)Cc3ccc(C#N)cc3F)C(F)(F)F)cc2)cc1` [Example 26, (S)-4-Fluoro-4-methyl-2-[(S)-2,2,2-trifluoro-1-(4′-methylsulfanyl-biphenyl-4-yl)-ethylamino]-pentanoic acid [(S)-1-cyano-2-(4-cyano-2-fluoro-phenyl)-ethyl]-amide] gave an IC50 of 4.2 nM.

For `CC(C)(F)C[C@H](N[C@@H](c1ccc(-c2ccc(C3(C#N)CC3)cc2)cc1)C(F)(F)F)C(=O)N[C@H](C#N)Cc1ccccc1` [Example 27, (S)-2-{(S)-1-[4′-(1-Cyano-cyclopropyl)-biphenyl-4-yl]-2,2,2-trifluoro-ethylamino}-4-fluoro-4-methyl-pentanoic acid ((S)-1-cyano-2-phenyl-ethyl)-amide], the IC50 worked out at 10.4 nM. This IC50 is about 2.5-fold higher than that of the compound before.

In turn, `CC(C)(F)C[C@H](N[C@@H](c1ccc(-c2ccc(C3(c4ncon4)CC3)cc2)cc1)C(F)(F)F)C(=O)N[C@H](C#N)Cc1ccccc1` [Example 29, (S)-4-Fluoro-4-methyl-2-{(S)-2,2,2-trifluoro-1-[4′-(1-[1,2,4]oxadiazol-3-yl-cyclopropyl)-biphenyl-4-yl]-ethylamino}-pentanoic acid ((S)-1-cyano-2-phenyl-ethyl)-amide] showed an IC50 of 20 nM.

In the case of `CC(C)(F)C[C@H](N[C@@H](c1ccc(-c2ccc(S(N)(=O)=O)cc2)cc1)C(F)(F)F)C(=O)N[C@H](C#N)Cc1ccccc1` [Example 31, (S)-4-Fluoro-4-methyl-2-[(S)-2,2,2-trifluoro-1-(4′-sulfamoyl-biphenyl-4-yl)-ethylamino]-pentanoic acid ((S)-1-cyano-2-phenyl-ethyl)-amide], the IC50 was 16 nM.

`CC(C)(F)C[C@H](N[C@@H](c1ccc(-c2ccc([C@@H](O)C(F)F)cc2)cc1)C(F)(F)F)C(=O)N[C@H](C#N)Cc1ccc(C#N)cc1F` [Example 32, (S)-2-{(S)-1-[4′-((R)-2,2-Difluoro-1-hydroxy-ethyl)-biphenyl-4-yl]-2,2,2-trifluoro-ethylamino}-4-fluoro-4-methyl-pentanoic acid [(S)-cyano-(4-cyano-2-fluoro-benzyl)-methyl]-amide] had an IC50 of 0.9 nM. This IC50 is about 18-fold lower than that of the compound before.

`CC(C)(F)C[C@H](N[C@@H](c1ccc(-c2ccc(S(C)(=O)=O)cc2)cc1)C(F)(F)F)C(=O)NC(C#N)Cc1ccc(C(F)(F)F)cc1F` (stereo partly drawn) [Example 33, (S)-4-Fluoro-4-methyl-2-[(S)-2,2,2-trifluoro-1-(4′-methanesulfonyl-biphenyl-4-yl)-ethylamino]-pentanoic acid [cyano-(2-fluoro-4-trifluoromethyl-benzyl)-methyl]-amide] returned an IC50 of 3.5 nM. Against the preceding compound, the IC50 is about 3.9-fold higher.

As to `CC(C)(F)C[C@H](N[C@@H](c1ccc(-c2ccc(S(C)(=O)=O)cc2)cc1)C(F)(F)F)C(=O)NC(C#N)Cc1ccc(F)cc1F` (stereo partly drawn) [Example 34, (S)-4-Fluoro-4-methyl-2-[(S)-2,2,2-trifluoro-1-(4′-methanesulfonyl-biphenyl-4-yl)-ethylamino]-pentanoic acid [cyano-(2,4-difluoro-benzyl)-methyl]-amide], 2.6 nM corresponded to half-maximal inhibition (IC50).
